Results as given in ChEMBL document CHEMBL3351501, “Inhibition of pseudolysin and thermolysin by hydroxamate-based MMP inhibitors” (Eur J Med Chem, 2015).

Columns and labels:
[1] = Inhibition of Bacillus thermoproteolyticus thermolysin using Mca-Arg-Pro-Pro-Gly-Phe-Ser-Ala-Phe-Lys-(Dnp)-OH as substrate after 1 hr by fluorescence assay in presence of Brij-35
Elastase [2] = target: T1, Elastase (Pseudomonas aeruginosa (strain ATCC 15692 / PAO1 / 1C / PRS 101 / LMG12228), UniProt P14756); test: Inhibition of Pseudomonas aeruginosa pseudolysin using Abz-Ala-Gly-Leu-Ala-p-nitrobenzylamide as substrate after 15 mins
T1 sequence (P14756 whole entry): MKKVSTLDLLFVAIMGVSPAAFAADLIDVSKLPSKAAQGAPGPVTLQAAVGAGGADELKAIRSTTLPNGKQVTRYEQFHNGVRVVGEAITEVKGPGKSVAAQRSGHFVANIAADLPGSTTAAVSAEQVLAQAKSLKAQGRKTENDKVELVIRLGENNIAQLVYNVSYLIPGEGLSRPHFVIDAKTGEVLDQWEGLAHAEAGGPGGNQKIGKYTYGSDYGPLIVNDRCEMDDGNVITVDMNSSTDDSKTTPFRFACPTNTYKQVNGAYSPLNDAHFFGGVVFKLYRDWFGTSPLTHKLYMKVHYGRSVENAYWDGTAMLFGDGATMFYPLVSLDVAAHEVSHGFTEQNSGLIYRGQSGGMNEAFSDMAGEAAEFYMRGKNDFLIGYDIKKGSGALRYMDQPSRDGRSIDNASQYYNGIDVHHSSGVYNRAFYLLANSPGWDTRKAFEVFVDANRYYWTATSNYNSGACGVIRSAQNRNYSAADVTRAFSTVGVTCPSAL

Elastase [3] = target: T1, Elastase; test: Inhibition of Pseudomonas aeruginosa pseudolysin using Mca-Arg-Pro-Pro-Gly-Phe-Ser-Ala-Phe-Lys-(Dnp)-OH as substrate after 1 hr by fluorescence assay in presence of Brij-35

| SMILES | IC50 [1] | IC50 (Elastase [2]) | IC50 (Elastase [3]) |
| --- | --- | --- | --- |
| COc1ccc(S(=O)(=O)N(CC(=O)O)CC(=O)NCCc2ccc(S(N)(=O)=O)cc2)cc1 | 637 µM | > 282 µM |  |
| COc1ccc(S(=O)(=O)N(CC(=O)NO)CC(=O)NCCc2ccc(S(N)(=O)=O)cc2)cc1 | 164 µM | 15 µM | 33 µM |
| NS(=O)(=O)c1ccc(CCNC(=O)CN(CC(=O)NO)S(=O)(=O)c2ccc(Oc3ccccc3)cc2)cc1 | 160 µM | 16 µM | 276 µM |
| NS(=O)(=O)c1ccc(CCNC(=O)CN(CC(=O)NO)S(=O)(=O)c2ccc(-c3ccccc3)cc2)cc1 | 67 µM | 31 µM |  |
| NS(=O)(=O)c1ccc(CCNC(=O)CN(CC(=O)NO)Cc2ccccc2)cc1 | 12 µM | 0.4 µM |  |
| O=C(O)CN(CC(=O)NO)Cc1ccc([N+](=O)[O-])cc1 | 755 µM | 20 µM |  |
| O=C(O)CN(CC(=O)NO)Cc1ccc(-c2ccccc2)cc1 | > 1000 µM | > 121 µM |  |
| O=C(O)CN(CC(=O)NO)Cc1ccc(Oc2ccccc2)cc1 | 524 µM | > 200 µM | 430 µM |
| O=C(O)CN(CC(=O)NO)S(=O)(=O)c1ccc(-c2ccccc2)cc1 | 440 µM | > 150 µM | 241 µM |
| O=C(O)CN(CC(=O)NO)NCCCN1CCN(c2ccccc2)CC1 | > 1000 µM | > 330 µM |  |
| O=C(CN(CC(=O)NCCCN1CCN(c2ccccc2)CC1)Cc1ccccc1)NO | 8 µM | 6.7 µM | 2.8 µM |
| O=C(O)CN(CC(=O)NO)S(=O)(=O)c1ccc(Oc2ccccc2)cc1 | 114 µM | > 186 µM | 46 µM |
| COc1ccc(S(=O)(=O)N(CC(=O)O)CC(=O)NO)cc1 | 270 µM | 169 µM | 153 µM |
| CC(C)[C@H](C(=O)NO)N(CC(=O)O)S(=O)(=O)c1ccc(Oc2ccccc2)cc1 | > 1000 µM | 82 µM | 336 µM |
